Experimental data as given in the NIST ThermoML archive (doi:10.1021/je400459y).

Assay: mn = molality of the nth substance listed, in mol/kg
Conditions: Liquid

[Cl-].[Na+] [sodium chloride] + O
Conditions	mass density [kg/m3]
332.77 K, 16012 kPa, m1 = 1	1028.34
332.83 K, 10001 kPa, m1 = 1	1025.96
332.88 K, 12003 kPa, m1 = 1	1026.78
332.96 K, 18010 kPa, m1 = 1	1029.12
333.11 K, 14007 kPa, m1 = 1	1027.52
333.13 K, 10014 kPa, m1 = 2	1060.45
333.13 K, 12007 kPa, m1 = 3	1090.92
333.13 K, 14002 kPa, m1 = 3	1091.64
333.16 K, 18002 kPa, m1 = 3	1093.07
333.17 K, 15999 kPa, m1 = 2	1062.63
333.18 K, 18011 kPa, m1 = 2	1063.39
333.19 K, 10002 kPa, m1 = 3	1089.97
333.19 K, 12008 kPa, m1 = 2	1061.17
333.2 K, 14003 kPa, m1 = 2	1061.9
333.21 K, 16006 kPa, m1 = 3	1092.36
333.52 K, 15999 kPa, m1 = 4	1123.12
333.54 K, 12004 kPa, m1 = 4	1121.22
333.55 K, 18008 kPa, m1 = 4	1124.3
333.56 K, 14008 kPa, m1 = 4	1122.36
333.59 K, 10007 kPa, m1 = 4	1120.38
352.11 K, 10000 kPa, m1 = 4	1109.5
352.14 K, 18001 kPa, m1 = 4	1112.67
352.16 K, 12008 kPa, m1 = 4	1109.8
352.17 K, 14050 kPa, m1 = 4	1111.1
352.19 K, 16005 kPa, m1 = 4	1111.53
352.65 K, 12002 kPa, m1 = 1	1015.47
353.13 K, 18026 kPa, m1 = 2	1052.55
353.14 K, 12005 kPa, m1 = 2	1050.19
353.16 K, 14002 kPa, m1 = 3	1079.82
353.16 K, 14003 kPa, m1 = 2	1050.95
353.19 K, 16007 kPa, m1 = 2	1051.71
353.2 K, 9995 kPa, m1 = 1	1014.63
353.2 K, 13999 kPa, m1 = 1	1016.06
353.23 K, 9996 kPa, m1 = 2	1049.38
353.23 K, 10007 kPa, m1 = 3	1078.28
353.23 K, 16008 kPa, m1 = 3	1080.53
353.27 K, 12003 kPa, m1 = 3	1079.02
353.28 K, 17998 kPa, m1 = 1	1017.65
353.28 K, 18002 kPa, m1 = 3	1081.24
372.7 K, 18017 kPa, m1 = 4	1100.7
372.71 K, 14005 kPa, m1 = 4	1099
372.72 K, 10019 kPa, m1 = 4	1097.2
372.75 K, 16043 kPa, m1 = 4	1100.12
372.76 K, 12007 kPa, m1 = 4	1098.5
372.96 K, 16007 kPa, m1 = 1	1003.93
373 K, 18001 kPa, m1 = 1	1004.74
373.03 K, 12005 kPa, m1 = 1	1002.25
373.03 K, 14001 kPa, m1 = 1	1003.21
373.1 K, 11999 kPa, m1 = 2	1038.08
373.11 K, 10005 kPa, m1 = 3	1066.26
373.11 K, 17997 kPa, m1 = 3	1069.36
373.16 K, 10001 kPa, m1 = 1	1001.31
373.16 K, 14004 kPa, m1 = 3	1067.77
373.17 K, 12008 kPa, m1 = 3	1067.01
373.2 K, 14002 kPa, m1 = 2	1038.84
373.22 K, 16005 kPa, m1 = 3	1068.52
392.6 K, 10002 kPa, m1 = 1	986.9
392.65 K, 12008 kPa, m1 = 1	987.5
392.65 K, 14005 kPa, m1 = 1	988.82
392.65 K, 16001 kPa, m1 = 1	989.54
392.65 K, 18001 kPa, m1 = 1	990.45
392.77 K, 14002 kPa, m1 = 4	1088.52
392.78 K, 15999 kPa, m1 = 4	1089.3
392.79 K, 10006 kPa, m1 = 4	1086.96
392.81 K, 12002 kPa, m1 = 4	1087.71
392.82 K, 18008 kPa, m1 = 4	1090.43
393.09 K, 14006 kPa, m1 = 3	1054.75
393.17 K, 10001 kPa, m1 = 3	1053.22
393.17 K, 16002 kPa, m1 = 3	1055.54
393.17 K, 18005 kPa, m1 = 2	1027.22
393.18 K, 10003 kPa, m1 = 2	1023.83
393.2 K, 11995 kPa, m1 = 2	1024.64
393.22 K, 13999 kPa, m1 = 2	1025.54
393.23 K, 16003 kPa, m1 = 2	1026.34
393.24 K, 12008 kPa, m1 = 3	1053.85
393.26 K, 17997 kPa, m1 = 3	1056.25
412.86 K, 10007 kPa, m1 = 4	1072.35
412.92 K, 12005 kPa, m1 = 4	1073.15
412.94 K, 14004 kPa, m1 = 4	1073.97
413.01 K, 16003 kPa, m1 = 4	1074.76
413.06 K, 18002 kPa, m1 = 4	1075.53
413.11 K, 17998 kPa, m1 = 2	1012.96
413.12 K, 14007 kPa, m1 = 2	1011.33
413.12 K, 16004 kPa, m1 = 1	973.21
413.14 K, 10008 kPa, m1 = 2	1009.53
413.14 K, 16003 kPa, m1 = 2	1012.21
413.14 K, 18004 kPa, m1 = 3	1041.53
413.15 K, 18001 kPa, m1 = 1	974.15
413.16 K, 10006 kPa, m1 = 1	970.45
413.17 K, 12009 kPa, m1 = 1	971.23
413.17 K, 16001 kPa, m1 = 3	1040.63
413.18 K, 12003 kPa, m1 = 2	1010.61
413.18 K, 13998 kPa, m1 = 1	972.24
413.2 K, 12005 kPa, m1 = 3	1038.72
413.23 K, 10007 kPa, m1 = 3	1038.23
